{
  "source": "ChEMBL document CHEMBL1201862",
  "about": "“PubChem BioAssay data set” (2004)",
  "key": {"[1]": {"experiment": "bead-based luminescence quenchers, dual-tagged ARNT – biochemical, AlphaScreen, cherry-pick, artefact control for ARNT-TACC3 interaction inhibitor project, dose response (AID 651705);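 also: AlphaScreen bead proximity signal that flags compounds interfering with the detection technology; potency reflects signal decrease which marks the compound as an assay artifact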", "format": "functional"}, "[2]": {"target": "T1, Small ubiquitin-related modifier 1 (Homo sapiens, UniProt P63165)", "T1 sequence (P63165 whole entry)": "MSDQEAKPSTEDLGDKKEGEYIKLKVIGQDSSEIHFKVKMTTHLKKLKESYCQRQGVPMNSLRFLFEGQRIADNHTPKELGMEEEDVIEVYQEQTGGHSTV", "experiment": "SUMO1 protein-protein binding blockers, potency – biochemical, FRET, dose response (AID 624383)", "format": "functional", "conditions": "read-out: IC50_Mean"}, "Fatty acid synthase [3]": {"target": "T2, Fatty acid synthase (Homo sapiens, UniProt P49327)", "T2 sequence (P49327 whole entry)": "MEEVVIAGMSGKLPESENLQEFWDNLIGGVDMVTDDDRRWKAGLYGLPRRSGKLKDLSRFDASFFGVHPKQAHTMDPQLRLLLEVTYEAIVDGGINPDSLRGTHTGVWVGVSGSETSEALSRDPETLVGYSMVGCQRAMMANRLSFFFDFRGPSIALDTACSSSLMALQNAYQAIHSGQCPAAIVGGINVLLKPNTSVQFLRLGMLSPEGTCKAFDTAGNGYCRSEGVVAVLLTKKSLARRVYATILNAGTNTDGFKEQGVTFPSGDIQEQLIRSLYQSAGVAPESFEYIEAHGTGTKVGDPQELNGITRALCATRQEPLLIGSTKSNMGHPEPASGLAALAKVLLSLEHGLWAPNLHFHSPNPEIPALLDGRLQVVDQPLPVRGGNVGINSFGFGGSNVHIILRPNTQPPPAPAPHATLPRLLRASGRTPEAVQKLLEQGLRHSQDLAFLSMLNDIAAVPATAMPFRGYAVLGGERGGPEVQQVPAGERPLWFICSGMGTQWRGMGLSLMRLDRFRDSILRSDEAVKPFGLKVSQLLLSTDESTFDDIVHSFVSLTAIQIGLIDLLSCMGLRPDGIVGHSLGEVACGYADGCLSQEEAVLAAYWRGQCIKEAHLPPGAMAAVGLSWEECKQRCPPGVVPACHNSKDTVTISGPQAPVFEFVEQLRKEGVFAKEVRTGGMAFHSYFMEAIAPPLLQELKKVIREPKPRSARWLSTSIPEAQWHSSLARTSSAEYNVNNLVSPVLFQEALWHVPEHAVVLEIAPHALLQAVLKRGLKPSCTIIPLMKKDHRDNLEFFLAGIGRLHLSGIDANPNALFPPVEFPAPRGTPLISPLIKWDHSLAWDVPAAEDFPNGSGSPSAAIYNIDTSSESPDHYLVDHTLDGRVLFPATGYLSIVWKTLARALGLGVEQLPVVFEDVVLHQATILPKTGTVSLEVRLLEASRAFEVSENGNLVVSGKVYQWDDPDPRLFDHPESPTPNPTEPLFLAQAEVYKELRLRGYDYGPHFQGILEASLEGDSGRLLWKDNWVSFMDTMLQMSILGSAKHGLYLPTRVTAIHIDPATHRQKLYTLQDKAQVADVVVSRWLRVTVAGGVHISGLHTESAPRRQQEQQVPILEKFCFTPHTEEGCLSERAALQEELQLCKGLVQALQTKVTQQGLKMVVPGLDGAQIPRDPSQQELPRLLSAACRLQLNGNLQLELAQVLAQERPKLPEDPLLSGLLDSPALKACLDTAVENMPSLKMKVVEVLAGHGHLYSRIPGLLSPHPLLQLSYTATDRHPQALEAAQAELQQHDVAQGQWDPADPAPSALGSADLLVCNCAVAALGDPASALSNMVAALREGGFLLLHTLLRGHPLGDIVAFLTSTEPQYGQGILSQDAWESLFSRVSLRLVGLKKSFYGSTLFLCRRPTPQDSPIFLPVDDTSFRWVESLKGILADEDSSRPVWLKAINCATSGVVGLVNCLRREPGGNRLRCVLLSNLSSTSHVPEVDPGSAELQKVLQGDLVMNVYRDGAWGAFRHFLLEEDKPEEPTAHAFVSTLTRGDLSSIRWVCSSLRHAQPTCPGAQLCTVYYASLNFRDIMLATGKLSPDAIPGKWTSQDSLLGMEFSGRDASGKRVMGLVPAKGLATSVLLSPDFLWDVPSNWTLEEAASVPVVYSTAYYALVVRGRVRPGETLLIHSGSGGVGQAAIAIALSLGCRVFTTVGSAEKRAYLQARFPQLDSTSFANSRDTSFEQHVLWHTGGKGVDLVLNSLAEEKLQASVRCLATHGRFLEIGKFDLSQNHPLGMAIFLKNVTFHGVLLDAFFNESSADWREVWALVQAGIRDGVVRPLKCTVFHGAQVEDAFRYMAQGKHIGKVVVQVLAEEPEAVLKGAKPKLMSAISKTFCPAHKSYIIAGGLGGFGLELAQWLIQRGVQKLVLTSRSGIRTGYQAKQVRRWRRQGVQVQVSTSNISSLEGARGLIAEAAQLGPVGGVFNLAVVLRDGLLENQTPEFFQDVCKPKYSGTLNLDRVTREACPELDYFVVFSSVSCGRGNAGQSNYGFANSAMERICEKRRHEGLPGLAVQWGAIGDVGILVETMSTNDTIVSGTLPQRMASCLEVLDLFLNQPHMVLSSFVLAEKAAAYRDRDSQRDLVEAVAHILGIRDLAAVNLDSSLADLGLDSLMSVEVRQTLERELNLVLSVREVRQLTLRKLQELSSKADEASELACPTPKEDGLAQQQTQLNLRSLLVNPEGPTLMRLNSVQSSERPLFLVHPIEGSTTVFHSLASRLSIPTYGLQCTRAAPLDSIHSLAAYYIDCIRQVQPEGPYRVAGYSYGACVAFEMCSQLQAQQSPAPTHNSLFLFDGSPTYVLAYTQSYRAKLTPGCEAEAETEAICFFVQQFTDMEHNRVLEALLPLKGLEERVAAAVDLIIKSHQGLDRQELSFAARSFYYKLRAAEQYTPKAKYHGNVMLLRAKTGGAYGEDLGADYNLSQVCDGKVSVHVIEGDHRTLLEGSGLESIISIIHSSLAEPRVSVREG", "experiment": "inhibition of human FAS-TE enzyme activity – biochemical, endpoint fluorescence intensity, uHTS hits, dose response (AID 624327);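 also: fluorescence from hydrolysis of an O-methyl fluorescein acyl ester substrate by the enzyme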", "format": "functional"}, "[4]": {"target": "T1, Small ubiquitin-related modifier 1", "experiment": "SUMO1 protein interaction blockers, potency – biochemical, fluorescence polarization, uHTS hits, dose response (AID 624382)", "format": "functional", "conditions": "read-out: IC50_Mean"}, "Fatty acid synthase [5]": {"target": "T2, Fatty acid synthase", "experiment": "inhibition of human FAS-TE enzyme activity – biochemical, kinetic fluorescence intensity, dose response (AID 624326);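 also: rate of fluorescence rise from hydrolysis of a fluorogenic O-methyl fluorescein ester substrate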", "format": "functional"}, "[6]": {"target": "T3, Histone-lysine N-methyltransferase NSD2 (Homo sapiens, UniProt O96028)", "T3 sequence (O96028 whole entry)": "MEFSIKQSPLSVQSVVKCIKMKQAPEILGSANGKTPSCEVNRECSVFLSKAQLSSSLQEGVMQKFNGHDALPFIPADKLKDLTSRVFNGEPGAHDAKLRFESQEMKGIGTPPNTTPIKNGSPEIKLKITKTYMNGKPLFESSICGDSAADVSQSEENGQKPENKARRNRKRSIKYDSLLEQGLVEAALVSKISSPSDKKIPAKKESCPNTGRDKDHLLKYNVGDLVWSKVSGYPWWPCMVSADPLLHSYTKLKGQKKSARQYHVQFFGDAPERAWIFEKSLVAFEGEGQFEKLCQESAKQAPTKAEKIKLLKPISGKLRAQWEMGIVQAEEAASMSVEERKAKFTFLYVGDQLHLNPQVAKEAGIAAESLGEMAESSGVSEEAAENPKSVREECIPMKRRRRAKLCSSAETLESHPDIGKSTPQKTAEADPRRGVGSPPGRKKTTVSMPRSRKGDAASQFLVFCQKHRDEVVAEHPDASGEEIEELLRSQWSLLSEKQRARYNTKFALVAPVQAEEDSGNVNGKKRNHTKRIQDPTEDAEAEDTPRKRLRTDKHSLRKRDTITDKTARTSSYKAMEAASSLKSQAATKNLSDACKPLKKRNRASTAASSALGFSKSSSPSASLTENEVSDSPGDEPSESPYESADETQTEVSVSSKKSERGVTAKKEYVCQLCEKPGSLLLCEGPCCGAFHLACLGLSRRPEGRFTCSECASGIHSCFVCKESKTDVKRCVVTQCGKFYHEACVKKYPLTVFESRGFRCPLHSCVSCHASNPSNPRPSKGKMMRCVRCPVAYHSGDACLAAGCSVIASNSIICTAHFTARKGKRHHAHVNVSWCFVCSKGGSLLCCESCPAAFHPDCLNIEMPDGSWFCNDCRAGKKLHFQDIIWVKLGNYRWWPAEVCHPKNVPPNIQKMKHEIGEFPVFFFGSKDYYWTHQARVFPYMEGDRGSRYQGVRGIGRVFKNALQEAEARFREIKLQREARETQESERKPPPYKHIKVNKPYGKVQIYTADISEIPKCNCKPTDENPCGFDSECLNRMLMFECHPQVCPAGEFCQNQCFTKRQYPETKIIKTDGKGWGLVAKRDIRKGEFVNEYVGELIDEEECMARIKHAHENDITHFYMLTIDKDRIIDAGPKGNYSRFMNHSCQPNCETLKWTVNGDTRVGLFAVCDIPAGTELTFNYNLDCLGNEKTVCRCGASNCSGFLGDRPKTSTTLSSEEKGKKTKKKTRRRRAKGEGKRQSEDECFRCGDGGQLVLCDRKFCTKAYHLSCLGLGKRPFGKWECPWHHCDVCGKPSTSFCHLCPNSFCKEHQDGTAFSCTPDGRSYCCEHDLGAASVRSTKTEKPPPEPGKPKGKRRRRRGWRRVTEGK", "format": "biochemical"}, "[7]": {"experiment": "inhibition of ARNT PAS-B/TACC3 complex formation – biochemical, AlphaScreen, cherry-picked samples, confirmation (AID 651703);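 also: His-tagged ARNT PAS-B domain paired with GST-TACC3 E629A dimer coactivator fragment; potency of inhibitors that break up the complex and lower AlphaScreen signal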", "format": "functional, Homo sapiens"}, "Caspase-6": {"target": "T4, Caspase-6 (Homo sapiens, UniProt P55212)", "T4 sequence (P55212 whole entry)": "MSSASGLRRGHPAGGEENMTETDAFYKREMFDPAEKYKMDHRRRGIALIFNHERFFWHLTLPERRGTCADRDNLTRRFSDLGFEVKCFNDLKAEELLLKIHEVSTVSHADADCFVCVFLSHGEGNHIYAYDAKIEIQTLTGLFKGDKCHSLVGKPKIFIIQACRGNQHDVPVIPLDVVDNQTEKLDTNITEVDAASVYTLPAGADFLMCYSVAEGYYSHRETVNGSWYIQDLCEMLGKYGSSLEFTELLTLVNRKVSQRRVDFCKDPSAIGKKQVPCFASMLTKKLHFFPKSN", "experiment": "inhibition of CASP6 peptide cleavage – biochemical, VEID-R110 fluorescence, cherry-pick, dose response (AID 720632)"}, "[8]": {"experiment": "activation of miR-122 Renilla sensor silencing – cell-based, Huh7 psiCHECK-miR122, Renilla luciferase, cherry-picked, dose response (AID 651956);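 also: huh7 hepatoma cells stably carrying a psiCHECK-2 miR-122 sensor plasmid; renilla luciferase signal reporting endogenous miR-122 activity after 48 h compound exposure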", "format": "functional"}, "[9]": {"experiment": "Counterscreen for activators of the function of SWI/SNF related, matrix associated, actin dependent regulator of chromatin, subfamily a, member 2 (SMARCA2, BRM): Luminescence-based cell-based high throughput dose response assay to identify non-selective compounds using the VP16 reporter assay.", "format": "functional"}, "[10]": {"target": "SWI/SNF-related matrix-associated actin-dependent regulator of chromatin subfamily A member 2 (Homo sapiens, UniProt P51531)", "sequence (P51531 whole entry)": "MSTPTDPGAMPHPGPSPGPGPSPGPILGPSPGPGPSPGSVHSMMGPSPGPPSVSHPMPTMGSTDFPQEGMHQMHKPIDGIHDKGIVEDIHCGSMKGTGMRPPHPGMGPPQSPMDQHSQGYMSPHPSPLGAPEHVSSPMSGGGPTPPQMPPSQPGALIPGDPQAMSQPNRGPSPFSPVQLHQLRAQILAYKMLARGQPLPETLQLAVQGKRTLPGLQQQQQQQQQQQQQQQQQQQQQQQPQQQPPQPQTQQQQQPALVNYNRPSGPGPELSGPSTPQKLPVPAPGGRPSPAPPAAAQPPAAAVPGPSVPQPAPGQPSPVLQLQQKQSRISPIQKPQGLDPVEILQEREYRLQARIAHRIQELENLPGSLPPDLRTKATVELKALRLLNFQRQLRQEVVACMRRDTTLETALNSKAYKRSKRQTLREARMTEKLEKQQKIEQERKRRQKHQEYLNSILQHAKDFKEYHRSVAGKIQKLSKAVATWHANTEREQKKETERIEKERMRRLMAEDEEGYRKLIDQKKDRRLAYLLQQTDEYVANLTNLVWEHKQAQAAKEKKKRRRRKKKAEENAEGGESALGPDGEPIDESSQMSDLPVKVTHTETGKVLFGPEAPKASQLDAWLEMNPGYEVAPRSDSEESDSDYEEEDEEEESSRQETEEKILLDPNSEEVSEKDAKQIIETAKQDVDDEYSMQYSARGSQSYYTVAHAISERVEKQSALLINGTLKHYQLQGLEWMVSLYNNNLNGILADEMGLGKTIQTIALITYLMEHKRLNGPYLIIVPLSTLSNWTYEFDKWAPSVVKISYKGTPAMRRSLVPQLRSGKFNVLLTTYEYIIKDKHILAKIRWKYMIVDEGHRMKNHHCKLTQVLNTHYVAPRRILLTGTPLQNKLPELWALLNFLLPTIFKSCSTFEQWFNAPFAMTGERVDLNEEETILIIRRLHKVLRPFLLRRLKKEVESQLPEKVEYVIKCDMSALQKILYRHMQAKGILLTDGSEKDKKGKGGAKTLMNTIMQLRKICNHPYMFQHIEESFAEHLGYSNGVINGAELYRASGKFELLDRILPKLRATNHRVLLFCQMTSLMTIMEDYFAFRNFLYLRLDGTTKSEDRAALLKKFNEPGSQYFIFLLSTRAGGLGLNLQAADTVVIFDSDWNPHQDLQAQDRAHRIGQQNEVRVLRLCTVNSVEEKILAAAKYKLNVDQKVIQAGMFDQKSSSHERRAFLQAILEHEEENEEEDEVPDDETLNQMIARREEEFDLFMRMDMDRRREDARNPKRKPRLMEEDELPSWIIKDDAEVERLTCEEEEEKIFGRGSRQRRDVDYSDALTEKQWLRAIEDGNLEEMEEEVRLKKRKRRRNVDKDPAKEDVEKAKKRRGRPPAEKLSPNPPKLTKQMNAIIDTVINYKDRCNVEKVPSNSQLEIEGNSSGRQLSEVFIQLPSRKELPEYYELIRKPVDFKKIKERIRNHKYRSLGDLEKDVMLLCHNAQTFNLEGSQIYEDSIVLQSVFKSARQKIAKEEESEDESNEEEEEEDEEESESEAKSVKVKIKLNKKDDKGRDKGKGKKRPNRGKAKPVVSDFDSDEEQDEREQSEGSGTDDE", "experiment": "Luminescence-based cell-based high throughput dose response assay to identify activators of the function of SWI/SNF related, matrix associated, actin dependent regulator of chromatin, subfamily a, member 2 (SMARCA2, BRM).", "format": "functional"}, "Paired box protein Pax-8": {"target": "Paired box protein Pax-8 (Homo sapiens, UniProt Q06710)", "sequence (Q06710 whole entry)": "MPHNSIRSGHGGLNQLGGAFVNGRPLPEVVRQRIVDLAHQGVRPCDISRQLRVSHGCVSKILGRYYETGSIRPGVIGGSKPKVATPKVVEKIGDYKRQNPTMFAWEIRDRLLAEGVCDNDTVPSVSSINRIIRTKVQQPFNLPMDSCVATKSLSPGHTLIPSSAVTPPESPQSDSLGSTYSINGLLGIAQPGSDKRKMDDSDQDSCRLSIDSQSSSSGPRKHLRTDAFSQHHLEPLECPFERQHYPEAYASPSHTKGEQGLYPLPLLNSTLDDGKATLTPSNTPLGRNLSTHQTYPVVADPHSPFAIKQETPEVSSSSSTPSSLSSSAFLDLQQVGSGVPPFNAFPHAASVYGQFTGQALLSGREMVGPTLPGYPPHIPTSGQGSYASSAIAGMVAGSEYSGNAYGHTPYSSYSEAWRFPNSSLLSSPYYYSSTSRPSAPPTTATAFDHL", "experiment": "PAX8 transcriptional activity inhibition in RMG-I – RMG-I cells, luciferase, cherry-pick, dose response (AID 687027);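 also: luciferase reporter driven by Pax8 target thyroperoxidase promoter measured by SteadyGlo luminescence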", "format": "functional, cell-based"}, "Interleukin-8 [11]": {"target": "T5, Interleukin-8 (Homo sapiens, UniProt P10145)", "T5 sequence (P10145 whole entry)": "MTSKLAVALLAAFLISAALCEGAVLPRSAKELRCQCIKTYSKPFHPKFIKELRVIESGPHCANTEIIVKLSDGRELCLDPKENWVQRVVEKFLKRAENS", "experiment": "Dose Response confirmation of uHTS small molecule hits for cystic fibrosis induced NFkb Inhibitors in a TNFa-induced IL8 counterscreen.", "format": "functional", "conditions": "read-out: IC50_Mean"}, "Interleukin-8 [12]": {"target": "T5, Interleukin-8", "experiment": "Dose Response confirmation of uHTS small molecule hits for cystic fibrosis induced NFkb Inhibitors in a PAF-induced IL8 counterscreen.", "format": "functional", "conditions": "read-out: IC50_Mean"}},
  "note": "Active and inactive are the calls of the source.",
  "data": [
    {"smiles": "O=C(NCCCn1ccnc1)Nc1ccc(Cl)c(Cl)c1", "values": [
      {"measurement": "AC50", "setting": "[1]", "result": "99 µM (active)"}
    ]},
    {"smiles": "N#Cc1cc2ccc(N3CCOCC3)cc2cc1C#N", "values": [
      {"measurement": "IC50", "setting": "[2]", "result": "100 µM (inactive)"},
      {"measurement": "IC50", "setting": "Fatty acid synthase [3]", "result": "5.9 µM (active)"},
      {"measurement": "IC50", "setting": "[4]", "result": "> 66.6 µM (inactive)"},
      {"measurement": "IC50", "setting": "Fatty acid synthase [5]", "result": "4.31 µM (active)"},
      {"measurement": "AC50", "setting": "[6]", "result": "3.05 µM (active)"},
      {"measurement": "AC50", "setting": "[7]", "result": "116 µM (active)"},
      {"measurement": "AC50", "setting": "Caspase-6", "result": "29.9 µM (active)"}
    ]},
    {"smiles": "COc1cc(-c2nnc(NC(=O)CS(=O)(=O)c3ccc(F)cc3)o2)cc(OC)c1OC", "values": [
      {"measurement": "AC50", "setting": "[1]", "result": "102 µM (active)"}
    ]},
    {"smiles": "COc1ccc(C#Cc2ccc3c(c2)O[C@H](CN(C)C(=O)CN2CCOCC2)[C@H](C)CN([C@@H](C)CO)S3(=O)=O)cc1", "values": [
      {"measurement": "AC50", "setting": "[8]", "result": "29.9 µM (active)"}
    ]},
    {"smiles": "N#C/C(=N/Nc1ccccc1F)C(=N)N1CCOCC1", "values": [
      {"measurement": "EC50", "setting": "[9]", "result": "> 91.2 µM (inactive)"},
      {"measurement": "EC50", "setting": "[10]", "result": "> 91.2 µM (inactive)"}
    ]},
    {"smiles": "C=C1C(=O)O[C@@H]2[C@H]1CC[C@H](C)[C@]1(O)CCC(=O)[C@@]21C", "note": "[CORONOPILIN]", "values": [
      {"measurement": "AC50", "setting": "Paired box protein Pax-8", "result": "5.43 µM (active)"},
      {"measurement": "IC50", "setting": "Interleukin-8 [11]", "result": "40.5 µM (inactive)"},
      {"measurement": "IC50", "setting": "Interleukin-8 [12]", "result": "7.49 µM (active)"}
    ]}
  ]
}
